From patent US7303763B2, “Compositions for conjugated estrogens and associated methods” (Watson Laboratories, Inc., priority 2001, dated 2007)

Experiment: Accelerated stability study of coated 0.625 mg conjugated estrogens tablets (active compounds and degradation products per USP, LOD)
Format: physicochemical
Conditions: for Change: initial % found versus 40c
Description: (§1) Stability was monitored under different storage conditions.
as §1

[1] = acrylic-coated 0.625 mg tablets, Lot EXPWS 1251, 10% Eudragit/RS:RL (2:1), Initial
[2] = acrylic-coated tablets, Lot EXPWS 1251, 40c, 75% RH/1m
[3] = acrylic-coated tablets, Lot EXPWS 1251, 40c, 75% RH/2m
[4] = acrylic-coated tablets, Lot EXPWS 1251, 40c, 75% RH/3m
[5] = acrylic-coated tablets, Lot EXPWS 1251, 50c, 75% RH/2 wks
[6] = acrylic-coated tablets, Lot EXPWS 1251, 75% RH/3m
[7] = sugar-coated 0.625 mg tablets, Lot EXPWS 1246, Initial
[8] = sugar-coated tablets, Lot EXPWS 1246, 40c, 75% RH/1 mnth
[9] = sugar-coated tablets, Lot EXPWS 1246, 40c, 75% RH/2 mnth
[10] = sugar-coated tablets, Lot EXPWS 1246, 50c, 75% RH/2 wks

SMILES	% Found [1]	% Found [2]	% Initial [2]	% Found [3]	% Initial [3]	% Found [4]	% Initial [4]	% Found [5]	% Initial [5]	Change [6]	% Found [7]	% Found [8]	% Initial [8]	% Found [9]	% Initial [9]	% Found [10]	% Initial [10]
C[C@]12CC[C@H]3C(=CCc4cc(O)ccc43)[C@@H]1CC[C@@H]2O [17b-dihydroequilin]	2.3%	2.6%	108.7%	2.4%	104.3%	2.4%	104.3%	2.2%	95.7%	−0.1	1.3%	1.3%	100.0%	1.4%	107.7%	1.3%	100.0%
C[C@]12CC[C@H]3C(=CCc4cc(O)ccc43)[C@@H]1CC[C@H]2O [17a-dihydroequilin]	17.9%	17.9%	100.0%	17.6%	98.3%	18.1%	101.1%	17.4%	97.2%	−0.2	14.0%	14.3%	102.1%	14.5%	103.6%	14.5%	103.6%
C[C@]12CCc3c(ccc4cc(O)ccc34)[C@@H]1CC[C@H]2O [17a-dihydroequilenin]	1.65%	2.03%	123.0%	2.34%	141.8%	2.82%	170.9%	1.79%	108.5%	−1.17	2.05%	2.16%	105.4%	2.2%	107.3%	2.19%	106.8%
C[C@]12CC[C@@H]3c4ccc(O)cc4CC[C@H]3[C@@H]1CC[C@H]2O [17a-estradiol]	4.6%	4.7%	102.2%	4.7%	102.2%	4.8%	104.3%	4.5%	97.8%	−0.2	3.8%	3.9%	102.6%	3.9%	102.6%	3.8%	100.0%
C[C@]12CC[C@@H]3c4ccc(O)cc4CC[C@H]3[C@@H]1CC[C@@H]2O [17b-estradiol]	1.26%	0.90%	71.4%	0.96%	76.2%	0.88%	69.8%	1.11%	88.1%	0.38	0.60%	0.56%	93.3%	0.62%	103.3%	0.59%	98.3%
C[C@]12CCC3=C(CCc4cc(O)ccc43)[C@@H]1CCC2=O [d8,9 dehydroesterone]	4.15%	4.13%	99.5%	4.02%	96.9%	3.91%	94.2%	4.07%	98.1%	0.24	4.72%	4.68%	99.2%	4.53%	96.0%	4.91%	104.0%
C[C@]12CCc3c(ccc4cc(O)ccc34)[C@@H]1CCC2=O [Equilenin]	2.2%	2.3%	104.5%	2.6%	118.2%	3.0%	136.4%	2.5%	113.6%	−0.8	2.6%	2.8%	107.7%	2.8%	107.7%	2.8%	107.7%
C[C@]12CCc3c(ccc4cc(O)ccc34)C1CCC2O (stereo partly drawn) [17b-dihydroequilenin]	0.77%	0.97%	126.0%	0.86%	111.7%	0.68%	88.3%	0.67%	87.0%	0.09	0.56%	0.58%	103.6%	0.44%	78.6%	0.63%	112.5%
C[C@]12CC[C@H]3C(=CCc4cc(O)ccc43)[C@@H]1CCC2=O [Equilin]	27.3%	27.1%	99.3%	26.5%	97.1%	26.4%	96.7%	26.5%	97.1%	0.9	22.7%	23.0%	101.3%	23%	101.3%	23.3%	102.6%
